EC50, IC50 and AC50 data for 3 molecules are collected here from ChEMBL document CHEMBL1201862, “PubChem BioAssay data set” (2004).

For experiment [1], the target named is T1, Kappa-type opioid receptor (Homo sapiens, UniProt P41145). The class given is functional.
For experiment [2], the target named is T1, Kappa-type opioid receptor. The format is functional. The source holds these as a separate data set.
Experiment [3] deals with T2, Delta-type opioid receptor (Homo sapiens, UniProt P41143). The experiment can be described thus: HTS Image-Based Screen for Agonists of the DOR Receptor. [Related pubchem assays (depositor defined):AID1777, AID1786, AID2133]. The class given is functional.
In the next experiment the target is Mu-type opioid receptor (Homo sapiens, UniProt P35372). The experiment is described as follows: HTS Image-Based Screen for Agonists of the MOR Receptor. [Related pubchem assays (depositor defined):AID1777, AID1785, AID1786, AID2133]. The format is functional.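 Further: imaging of beta-arrestin GFP recruitment into spots after receptor activation.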
Experiment [4] concerns the target T2, Delta-type opioid receptor. The experiment is described as follows: HTS Image-Based Screen for Antagonists of the DOR Receptor. [Related pubchem assays (depositor defined):AID1777, AID1785, AID1786, AID2133]. The class given is functional.
Experiment [5] in a line: HEK-293T viability loss after treatment – luminescence, T-cell screen hits, cytotoxicity control for TCR NF-kB inhibitor project, dose response (AID 489026).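 Further: cells exposed to compound about 14 hours before the viability readout.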 The format is functional, cell-based.
Experiment [6] is described as follows: alpha-synuclein stem-loop luciferase translation blockers – H4 neuroglioma cells, luminescence, confirmation (AID 1988). The class given is functional, cell-based.
Another experiment deals with Cytochrome P450 2C9 (Homo sapiens, UniProt P11712).
Experiment [7] can be described thus: Luminescence Cell-Based Dose Retest to Confirm Activators of 5'UTR Stem-Loop Driven Alpha-Synuclein mRNA Translation in H4 Neuroglioblastoma Cells. [Related pubchem assays (depositor defined):AID1813, AID1829]. The class given is functional.
Experiment [8] is described as follows: Luminescence Cell-Based Dose Confirmation HTS to Identify Inhibitors of 5'UTR Stem-Loop Driven Alpha-Synuclein mRNA Translation in H4 Neuroglioblastoma Cells. [Related pubchem assays: 1827 (Project Summary), 1813 (Primary HTS)]. The format is functional.
The nature of experiment [9]: Luminescence Cell-Based Dose Response HTS to Identify Inhibitors of Luciferase Translation or Activity in H4-C Neuroglioblastoma Cells. [Related pubchem assays: 1813 (Primary HTS), 1827 (Project Summary)]. The class given is functional.
Experiment [10] in a line: Luminescence Cell-Based Dose HTS Response to Identify Inhibitors of 5'UTR Stem-Loop Driven Prion Protein mRNA Translation in H4-C Neuroglioblastoma Cells. [Related pubchem assays (depositor defined):AID1814, AID1827]. The class given is functional.
A short description of experiment [11]: Luminescence Cell-Based Dose Response HTS to Identify Inhibitors of 5'UTR Stem-Loop Driven Prion Protein mRNA Translation in H4 Neuroglioblastoma Cells. [Related pubchem assays: 1827 (Project Summary), 1813 (Primary HTS)]. The format is functional.
Experiment [12] in a line: Luminescence Cell-Based Dose Response HTS to Identify Activators of 5'UTR Stem-Loop Driven Prion Protein mRNA Translation in H4-C Neuroglioblastoma Cells. [Related pubchem assays: 1829 (Project Summary), 1814 (Primary HTS)]. The class given is functional.
Experiment [13] is described as follows: Luminescence Cell-Based Dose Response HTS to Identify Activators of Luciferase Translation or Activity in H4-C Neuroglioblastoma Cells. [Related pubchem assays: 1829 (Project Summary), 1814 (Primary HTS)]. The class given is functional.
The nature of experiment [14]: luciferase reporter signal suppression in cells – H4 neuroglioma cells, luminescence, dose response (AID 1990). The class given is functional, cell-based.
A further experiment relates to INS1. The experiment is described as follows: INS-1E survival protection against cytokine death – cell-based, luminescence, retest, dose response (AID 449756).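 Further: cell death triggered by IL-1 beta plus TNF-alpha plus IFN-gamma mixture; protective hits raise ATP signal compared with cytokine alone wells.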 The class given is functional. The following applies: Rattus norvegicus.
In experiment [15] the target is Lysine-specific demethylase 4C (Homo sapiens, UniProt Q9H3R0). The experiment can be described thus: inhibition of JMJD2C H3K9me3 demethylation – biochemical, DELFIA europium, cherry-picked samples, dose response (AID 488835). The class given is functional.

Molecules are shown by their SMILES. The source made the active and inactive calls. Some results are limits rather than exact numbers.

T2 sequence (P41143 whole entry): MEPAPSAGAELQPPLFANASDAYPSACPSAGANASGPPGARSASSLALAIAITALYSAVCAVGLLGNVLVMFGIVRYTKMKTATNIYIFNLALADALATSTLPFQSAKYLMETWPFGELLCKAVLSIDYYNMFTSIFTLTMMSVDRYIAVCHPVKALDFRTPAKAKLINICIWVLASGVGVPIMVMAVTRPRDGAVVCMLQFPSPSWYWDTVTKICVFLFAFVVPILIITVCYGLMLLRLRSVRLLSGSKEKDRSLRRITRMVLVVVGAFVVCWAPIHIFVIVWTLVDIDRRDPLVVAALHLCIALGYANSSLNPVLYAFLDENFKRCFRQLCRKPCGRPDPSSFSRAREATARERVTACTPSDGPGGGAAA
T1 sequence (P41145 whole entry): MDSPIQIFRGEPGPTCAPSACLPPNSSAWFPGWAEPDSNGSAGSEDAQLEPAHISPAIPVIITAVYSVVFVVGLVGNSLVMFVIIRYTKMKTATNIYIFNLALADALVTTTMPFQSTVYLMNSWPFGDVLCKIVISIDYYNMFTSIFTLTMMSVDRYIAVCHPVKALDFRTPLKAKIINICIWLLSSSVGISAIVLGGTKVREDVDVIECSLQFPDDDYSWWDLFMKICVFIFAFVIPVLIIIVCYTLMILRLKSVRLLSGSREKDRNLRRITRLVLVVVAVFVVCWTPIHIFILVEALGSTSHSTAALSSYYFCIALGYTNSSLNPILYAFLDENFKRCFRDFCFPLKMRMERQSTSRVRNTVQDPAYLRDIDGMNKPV
Sequence of Lysine-specific demethylase 4C (Q9H3R0 whole entry): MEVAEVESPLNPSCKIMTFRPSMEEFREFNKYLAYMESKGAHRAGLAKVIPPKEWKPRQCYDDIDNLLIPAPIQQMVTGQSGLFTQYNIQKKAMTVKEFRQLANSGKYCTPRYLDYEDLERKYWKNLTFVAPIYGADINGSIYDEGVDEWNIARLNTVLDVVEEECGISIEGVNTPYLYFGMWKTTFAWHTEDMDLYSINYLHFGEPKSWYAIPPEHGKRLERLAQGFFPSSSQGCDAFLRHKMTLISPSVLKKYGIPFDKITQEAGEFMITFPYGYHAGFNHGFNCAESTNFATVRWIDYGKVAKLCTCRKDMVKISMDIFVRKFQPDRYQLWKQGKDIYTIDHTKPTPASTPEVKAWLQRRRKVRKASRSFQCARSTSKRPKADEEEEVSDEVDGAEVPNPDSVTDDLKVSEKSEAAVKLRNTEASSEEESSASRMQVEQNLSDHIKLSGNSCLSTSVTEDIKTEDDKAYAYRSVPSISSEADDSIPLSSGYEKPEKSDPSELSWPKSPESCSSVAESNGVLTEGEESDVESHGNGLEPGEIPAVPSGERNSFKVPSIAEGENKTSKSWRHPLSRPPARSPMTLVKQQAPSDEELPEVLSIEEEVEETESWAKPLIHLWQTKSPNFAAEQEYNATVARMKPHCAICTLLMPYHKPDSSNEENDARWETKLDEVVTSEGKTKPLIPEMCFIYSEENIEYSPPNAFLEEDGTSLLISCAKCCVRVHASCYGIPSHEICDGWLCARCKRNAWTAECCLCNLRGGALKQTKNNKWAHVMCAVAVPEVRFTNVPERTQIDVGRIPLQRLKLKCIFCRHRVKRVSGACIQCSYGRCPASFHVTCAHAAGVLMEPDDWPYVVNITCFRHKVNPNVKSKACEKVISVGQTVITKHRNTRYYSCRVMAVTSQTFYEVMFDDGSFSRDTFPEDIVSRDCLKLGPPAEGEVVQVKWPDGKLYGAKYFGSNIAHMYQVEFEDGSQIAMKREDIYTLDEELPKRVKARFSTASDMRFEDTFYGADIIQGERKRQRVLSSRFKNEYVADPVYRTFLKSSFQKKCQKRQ
Sequence of Cytochrome P450 2C9 (P11712 whole entry): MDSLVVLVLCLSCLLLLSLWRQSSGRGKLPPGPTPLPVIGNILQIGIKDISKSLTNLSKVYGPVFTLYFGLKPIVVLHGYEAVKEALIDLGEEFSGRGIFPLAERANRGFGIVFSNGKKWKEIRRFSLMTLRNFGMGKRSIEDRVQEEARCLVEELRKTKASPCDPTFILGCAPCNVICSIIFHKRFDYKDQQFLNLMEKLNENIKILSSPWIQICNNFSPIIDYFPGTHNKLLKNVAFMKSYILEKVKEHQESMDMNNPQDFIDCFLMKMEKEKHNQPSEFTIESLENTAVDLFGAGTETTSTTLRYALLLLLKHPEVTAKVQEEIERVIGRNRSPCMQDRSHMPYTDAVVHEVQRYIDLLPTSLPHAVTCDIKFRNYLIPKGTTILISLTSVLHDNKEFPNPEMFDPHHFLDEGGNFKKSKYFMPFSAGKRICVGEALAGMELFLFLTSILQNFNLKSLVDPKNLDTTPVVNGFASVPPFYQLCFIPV
Sequence of Mu-type opioid receptor (P35372 whole entry): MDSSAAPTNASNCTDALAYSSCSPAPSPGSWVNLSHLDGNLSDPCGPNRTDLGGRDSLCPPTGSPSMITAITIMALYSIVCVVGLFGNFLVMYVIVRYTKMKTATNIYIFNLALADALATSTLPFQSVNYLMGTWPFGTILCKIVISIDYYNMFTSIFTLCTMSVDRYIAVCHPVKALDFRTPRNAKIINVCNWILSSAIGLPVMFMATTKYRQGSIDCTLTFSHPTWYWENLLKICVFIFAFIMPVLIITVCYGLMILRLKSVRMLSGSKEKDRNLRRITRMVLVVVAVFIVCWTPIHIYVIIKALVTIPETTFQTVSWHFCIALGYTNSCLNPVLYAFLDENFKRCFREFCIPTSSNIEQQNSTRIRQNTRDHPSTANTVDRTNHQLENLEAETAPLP

The EC50 is the concentration at which the effect is half-maximal. What is called IC50 is the point on the concentration scale where inhibition reaches its midpoint. Turning to `COc1ccc(C[C@@H]2CN3C(=NC[C@@H]3C)N2CCNC(=O)c2ccc(C)c(Br)c2)cc1`, the EC50 in experiment [1] is less than 0.5 µM; in [2], 0.118 µM; in [3], > 32 µM (inactive); at Mu-type opioid receptor it was > 32 µM (inactive). Besides, in experiment [4], the IC50 was > 32 µM (inactive).
By AC50 is commonly meant the concentration at which the activity in the assay is half-maximal. In the case of `O=C(COc1ccccc1-c1ccccc1)N/N=C/c1cccc2ccccc12`, in [5], the IC50 was > 80 µM (inactive). The EC50 is < 0.195 µM (active) in [6]; 1.84 µM (inconclusive) in experiment [7]; 1.74 µM (active) in experiment [8]; 0.85 µM (active) in experiment [9]; 1.76 µM (active) in experiment [10]; > 120 µM (not active) in [11]. Moreover, the EC50 in [12] is 0.695 µM (inconclusive); in experiment [13], 0.921 µM (inconclusive); in experiment [14] it was 11.5 µM (active). In addition, the AC50 on Cytochrome P450 2C9 was 20 µM (inconclusive).
In the case of `O=C(CNC(=O)c1ccccc1O)N/N=C/c1cc(Br)ccc1OC(=O)/C=C/c1ccco1`, the concentration giving a half-maximal response (EC50) is 9.47 µM (active) in experiment [6], 7.28 µM (active) in experiment [11] and 10.7 µM (active) in [14]. For the same molecule, the AC50 with INS1 is 3.13 µM (active); in experiment [15], 10.8 µM (active).
